Data as given in ChEMBL document CHEMBL1201862, “PubChem BioAssay data set” (2004).
Blank lines part the entries; values can stand above or below the compound they belong to. Activity calls are given as the source filed them. Unless noted, the calls are words filed in the database; no cut-off is given here.

Tests used:
[1] = target: T1, Acyl-homoserine lactone acylase PvdQ (Pseudomonas aeruginosa (strain LESB58), UniProt Q9I194); experiment: P. aeruginosa PvdQ acylase inhibitors, dose response, biochemical, fluorescence, plate reader and imaging, cherry-picks (AID 493231)
T1 sequence (Q9I194 whole entry): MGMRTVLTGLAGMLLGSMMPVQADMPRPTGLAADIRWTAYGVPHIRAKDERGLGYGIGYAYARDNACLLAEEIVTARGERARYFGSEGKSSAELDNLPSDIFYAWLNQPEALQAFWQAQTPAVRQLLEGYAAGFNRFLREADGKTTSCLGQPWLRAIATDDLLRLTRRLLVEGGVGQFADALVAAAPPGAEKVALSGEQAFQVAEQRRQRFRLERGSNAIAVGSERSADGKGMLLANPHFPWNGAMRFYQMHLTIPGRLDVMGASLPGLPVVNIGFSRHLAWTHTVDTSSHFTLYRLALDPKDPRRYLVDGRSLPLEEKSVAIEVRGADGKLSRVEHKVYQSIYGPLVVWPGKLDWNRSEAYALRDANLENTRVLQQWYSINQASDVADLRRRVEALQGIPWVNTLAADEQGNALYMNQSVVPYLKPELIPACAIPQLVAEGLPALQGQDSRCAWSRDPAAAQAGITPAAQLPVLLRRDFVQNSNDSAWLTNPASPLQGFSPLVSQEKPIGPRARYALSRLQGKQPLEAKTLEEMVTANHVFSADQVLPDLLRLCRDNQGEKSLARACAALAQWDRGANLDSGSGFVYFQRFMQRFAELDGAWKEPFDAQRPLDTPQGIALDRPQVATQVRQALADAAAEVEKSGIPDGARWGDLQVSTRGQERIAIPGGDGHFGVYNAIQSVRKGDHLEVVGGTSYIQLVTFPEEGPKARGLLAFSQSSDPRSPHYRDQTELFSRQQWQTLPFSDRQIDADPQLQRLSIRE

HeLa = experiment: HeLa cell cytotoxicity, dose response, cytotoxicity control, 48 h, plate reader, cherry-picks (AID 504942); assay type: functional, cell-based; conditions: Homo sapiens
[2] = target: T2, RNA-binding protein pos-1 (Caenorhabditis elegans, UniProt G5EF15); experiment: inhibitors of POS-1/mex-3 RNA binding, dose response, biochemical, fluorescence polarization (AID 1964);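 further: purified POS-1 fused to maltose binding protein made in E. coli; potency of compounds blocking POS-1 binding to fluorescent RNA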
T2 sequence (G5EF15 whole entry): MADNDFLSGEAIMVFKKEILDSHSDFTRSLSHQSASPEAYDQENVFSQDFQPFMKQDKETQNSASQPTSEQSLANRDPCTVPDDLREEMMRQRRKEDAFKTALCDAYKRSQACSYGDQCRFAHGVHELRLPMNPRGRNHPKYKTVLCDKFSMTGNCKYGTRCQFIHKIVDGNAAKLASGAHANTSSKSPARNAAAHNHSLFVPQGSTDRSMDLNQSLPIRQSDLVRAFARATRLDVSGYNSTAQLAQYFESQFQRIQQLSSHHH

[3] = target: T3, Zinc finger protein mex-5 (Caenorhabditis elegans, UniProt Q9XUB2); experiment: MEX-5/TCR-2 RNA interaction inhibitors, dose response, biochemical, C. elegans, fluorescence polarization (AID 1960)
T3 sequence (Q9XUB2 whole entry): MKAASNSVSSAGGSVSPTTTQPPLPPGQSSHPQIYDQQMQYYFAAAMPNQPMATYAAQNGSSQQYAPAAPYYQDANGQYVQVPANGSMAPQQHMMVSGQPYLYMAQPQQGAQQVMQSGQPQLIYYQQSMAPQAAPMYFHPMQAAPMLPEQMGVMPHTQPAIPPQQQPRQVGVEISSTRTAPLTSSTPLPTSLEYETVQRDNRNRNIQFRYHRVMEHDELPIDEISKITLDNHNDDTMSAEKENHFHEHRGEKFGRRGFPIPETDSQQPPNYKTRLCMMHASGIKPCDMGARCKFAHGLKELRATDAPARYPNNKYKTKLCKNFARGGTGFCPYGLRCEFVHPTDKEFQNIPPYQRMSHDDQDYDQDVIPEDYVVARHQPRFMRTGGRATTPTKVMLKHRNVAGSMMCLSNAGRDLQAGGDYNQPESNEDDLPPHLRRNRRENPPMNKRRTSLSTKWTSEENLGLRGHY

Ephrin type-A receptor 4 = Ephrin type-A receptor 4 (Mus musculus, UniProt Q03137); experiment: inhibitors of EphA4 binding to KYL peptide, primary screen, biochemical, colorimetric, mouse EphA4 (AID 689); assay type: functional
Chain of Ephrin type-A receptor 4 (Q03137 whole entry): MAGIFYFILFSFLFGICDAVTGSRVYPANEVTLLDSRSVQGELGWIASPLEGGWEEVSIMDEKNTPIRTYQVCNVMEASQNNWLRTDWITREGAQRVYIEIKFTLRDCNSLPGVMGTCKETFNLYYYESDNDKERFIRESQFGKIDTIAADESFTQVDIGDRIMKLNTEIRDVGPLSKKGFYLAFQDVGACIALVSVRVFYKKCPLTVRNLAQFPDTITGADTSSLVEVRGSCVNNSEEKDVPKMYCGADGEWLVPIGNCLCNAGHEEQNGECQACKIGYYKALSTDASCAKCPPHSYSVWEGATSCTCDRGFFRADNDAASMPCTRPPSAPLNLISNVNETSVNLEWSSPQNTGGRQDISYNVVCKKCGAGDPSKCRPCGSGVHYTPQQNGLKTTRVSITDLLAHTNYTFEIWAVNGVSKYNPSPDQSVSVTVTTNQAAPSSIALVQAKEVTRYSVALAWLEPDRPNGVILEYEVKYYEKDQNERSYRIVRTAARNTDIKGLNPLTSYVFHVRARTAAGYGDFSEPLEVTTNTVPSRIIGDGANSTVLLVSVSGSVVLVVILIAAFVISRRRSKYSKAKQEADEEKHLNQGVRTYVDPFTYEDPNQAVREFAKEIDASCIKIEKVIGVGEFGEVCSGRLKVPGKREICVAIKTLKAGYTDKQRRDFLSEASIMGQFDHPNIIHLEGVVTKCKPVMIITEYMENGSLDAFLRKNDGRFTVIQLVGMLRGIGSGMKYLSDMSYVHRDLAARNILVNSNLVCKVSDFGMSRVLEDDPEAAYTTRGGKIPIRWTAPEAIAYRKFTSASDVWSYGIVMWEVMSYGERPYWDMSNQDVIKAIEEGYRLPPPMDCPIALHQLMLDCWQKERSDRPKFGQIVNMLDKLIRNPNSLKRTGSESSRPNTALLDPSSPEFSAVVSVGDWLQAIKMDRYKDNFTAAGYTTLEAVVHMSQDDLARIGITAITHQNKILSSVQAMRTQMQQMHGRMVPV

[4] = target: Voltage-dependent T-type calcium channel subunit alpha-1H (Homo sapiens, UniProt O95180); assay type: functional;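 further: channel activity triggered by adding a high calcium stimulation buffer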
Chain of Voltage-dependent T-type calcium channel subunit alpha-1H (O95180 whole entry): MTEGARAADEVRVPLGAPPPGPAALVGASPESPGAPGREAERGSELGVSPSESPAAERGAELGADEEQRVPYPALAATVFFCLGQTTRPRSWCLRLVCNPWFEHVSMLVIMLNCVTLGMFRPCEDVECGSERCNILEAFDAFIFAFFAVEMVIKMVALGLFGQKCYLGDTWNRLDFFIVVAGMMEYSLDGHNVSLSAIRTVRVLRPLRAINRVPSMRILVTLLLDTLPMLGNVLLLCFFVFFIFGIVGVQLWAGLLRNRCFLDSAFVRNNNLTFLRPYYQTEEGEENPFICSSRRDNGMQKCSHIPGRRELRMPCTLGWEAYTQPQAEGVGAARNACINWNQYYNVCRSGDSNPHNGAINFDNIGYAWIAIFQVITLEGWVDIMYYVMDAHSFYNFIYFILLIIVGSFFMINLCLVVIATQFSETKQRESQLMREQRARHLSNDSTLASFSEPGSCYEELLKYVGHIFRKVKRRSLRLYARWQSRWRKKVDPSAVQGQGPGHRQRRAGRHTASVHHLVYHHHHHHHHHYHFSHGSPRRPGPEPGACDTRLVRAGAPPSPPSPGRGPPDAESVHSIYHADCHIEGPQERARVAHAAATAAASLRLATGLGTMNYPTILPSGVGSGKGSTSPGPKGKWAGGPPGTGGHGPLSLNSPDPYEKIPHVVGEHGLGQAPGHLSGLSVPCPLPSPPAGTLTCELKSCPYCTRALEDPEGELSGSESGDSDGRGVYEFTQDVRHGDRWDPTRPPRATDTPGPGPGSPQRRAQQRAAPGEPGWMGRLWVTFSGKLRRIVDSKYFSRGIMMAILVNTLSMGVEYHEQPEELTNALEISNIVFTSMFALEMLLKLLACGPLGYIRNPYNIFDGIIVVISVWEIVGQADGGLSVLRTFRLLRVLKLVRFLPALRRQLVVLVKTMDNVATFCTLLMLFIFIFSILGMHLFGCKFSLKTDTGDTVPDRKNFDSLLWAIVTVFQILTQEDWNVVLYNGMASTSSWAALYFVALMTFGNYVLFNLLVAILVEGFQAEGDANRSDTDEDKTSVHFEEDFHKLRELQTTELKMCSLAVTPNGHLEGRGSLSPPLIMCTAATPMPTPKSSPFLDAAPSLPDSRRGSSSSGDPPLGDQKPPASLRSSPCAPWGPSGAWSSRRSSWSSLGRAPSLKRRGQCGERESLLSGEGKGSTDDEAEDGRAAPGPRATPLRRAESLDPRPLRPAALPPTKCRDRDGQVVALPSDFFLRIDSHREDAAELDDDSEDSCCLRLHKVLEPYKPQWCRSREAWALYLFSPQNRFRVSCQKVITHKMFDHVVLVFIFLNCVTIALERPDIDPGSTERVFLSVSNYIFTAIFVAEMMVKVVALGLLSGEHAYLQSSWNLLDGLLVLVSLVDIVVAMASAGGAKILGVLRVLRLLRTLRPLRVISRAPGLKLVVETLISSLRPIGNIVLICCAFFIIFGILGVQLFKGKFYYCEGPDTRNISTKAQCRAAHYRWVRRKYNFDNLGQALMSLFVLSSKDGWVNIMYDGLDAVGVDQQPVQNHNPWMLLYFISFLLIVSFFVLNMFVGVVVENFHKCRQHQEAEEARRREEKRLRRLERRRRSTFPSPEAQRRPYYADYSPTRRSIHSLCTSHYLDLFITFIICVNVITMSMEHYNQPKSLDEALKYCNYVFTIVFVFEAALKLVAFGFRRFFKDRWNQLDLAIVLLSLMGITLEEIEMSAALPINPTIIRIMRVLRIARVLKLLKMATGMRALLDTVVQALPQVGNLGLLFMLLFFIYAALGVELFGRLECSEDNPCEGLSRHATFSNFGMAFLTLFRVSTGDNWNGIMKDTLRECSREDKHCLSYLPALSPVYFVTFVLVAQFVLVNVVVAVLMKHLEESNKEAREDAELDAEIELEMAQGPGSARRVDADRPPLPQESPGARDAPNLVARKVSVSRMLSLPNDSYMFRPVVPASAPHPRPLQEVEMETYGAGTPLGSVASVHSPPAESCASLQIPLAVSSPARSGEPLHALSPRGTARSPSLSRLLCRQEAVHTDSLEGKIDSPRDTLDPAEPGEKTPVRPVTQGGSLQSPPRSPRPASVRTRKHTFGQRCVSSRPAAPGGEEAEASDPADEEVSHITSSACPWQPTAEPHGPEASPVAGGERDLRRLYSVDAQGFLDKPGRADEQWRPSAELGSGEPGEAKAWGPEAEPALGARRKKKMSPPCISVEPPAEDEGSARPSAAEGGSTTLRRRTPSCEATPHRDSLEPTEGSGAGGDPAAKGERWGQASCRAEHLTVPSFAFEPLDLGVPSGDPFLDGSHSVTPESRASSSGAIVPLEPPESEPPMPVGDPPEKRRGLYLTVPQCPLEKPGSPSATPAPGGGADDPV

[5] = target: T4, Endoribonuclease toxin MazF (Escherichia coli K-12, UniProt P0AE70); experiment: MazF toxin RNase activators, dose response, biochemical, fluorescence, single-stranded RNA substrate, uHTS hits (AID 588481); assay type: functional
T4 sequence (P0AE70 whole entry): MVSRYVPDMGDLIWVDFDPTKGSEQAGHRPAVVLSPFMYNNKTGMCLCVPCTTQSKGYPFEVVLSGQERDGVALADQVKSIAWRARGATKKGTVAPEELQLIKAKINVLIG

[6] = target: T4, Endoribonuclease toxin MazF; experiment: fluorescent RNA oligo signal without MazF, dose response, counter-screen for MazEF activator project, biochemical, fluorescence, single-stranded RNase substrate (AID 588502); assay type: functional
[7] = target: T5, Corticotropin-releasing factor receptor 2/Corticotropin-releasing factor-binding protein (Homo sapiens, UniProt P24387+Q13324); experiment: activators of CRF receptor 2 with binding protein – uHTS hits, confirmation (AID 602473); assay type: functional; conditions: read-out: EC50_Mean
T5 sequence (Q13324 whole entry): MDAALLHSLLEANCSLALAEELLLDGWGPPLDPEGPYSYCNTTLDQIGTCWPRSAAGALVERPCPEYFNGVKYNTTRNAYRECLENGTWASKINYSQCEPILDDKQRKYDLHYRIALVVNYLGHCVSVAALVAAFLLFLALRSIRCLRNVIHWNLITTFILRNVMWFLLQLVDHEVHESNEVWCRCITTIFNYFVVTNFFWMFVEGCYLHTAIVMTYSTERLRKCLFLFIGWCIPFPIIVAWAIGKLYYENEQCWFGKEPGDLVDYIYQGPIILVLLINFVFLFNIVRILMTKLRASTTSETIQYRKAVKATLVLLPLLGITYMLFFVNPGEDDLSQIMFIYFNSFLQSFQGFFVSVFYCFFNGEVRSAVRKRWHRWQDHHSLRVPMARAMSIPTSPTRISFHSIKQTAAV
T5 sequence (P24387 whole entry): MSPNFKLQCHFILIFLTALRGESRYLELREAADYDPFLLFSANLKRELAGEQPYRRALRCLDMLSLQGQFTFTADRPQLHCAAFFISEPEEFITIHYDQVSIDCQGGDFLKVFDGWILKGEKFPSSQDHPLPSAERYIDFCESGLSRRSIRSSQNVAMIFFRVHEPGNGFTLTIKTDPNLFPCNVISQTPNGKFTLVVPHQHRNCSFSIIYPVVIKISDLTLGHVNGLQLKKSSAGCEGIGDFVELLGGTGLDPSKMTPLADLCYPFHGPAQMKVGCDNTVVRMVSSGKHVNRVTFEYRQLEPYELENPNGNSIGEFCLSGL

INS1 [8] = experiment: protection of INS-1E cells from cytokine death, dose response, ATP luminescence, dry powder (AID 488844); assay type: functional, cell-based; conditions: Rattus norvegicus
INS1 [9] = experiment: protection from cytokine-induced mitochondrial depolarization, dose response, cell-based, INS-1E, JC-1 fluorescence ratio, dry powder (AID 488931); assay type: functional; conditions: Rattus norvegicus
[10] = target: T6, Short transient receptor potential channel 4 (Mus musculus, UniProt Q9QUQ5); experiment: SAR Analysis for the identification of selective inhibits of the transient receptor potential cation channel C4 (TRPC4): Automated Electrophysiology. [Related pubchem assays (depositor defined):AID2256]; assay type: functional
T6 sequence (Q9QUQ5 whole entry): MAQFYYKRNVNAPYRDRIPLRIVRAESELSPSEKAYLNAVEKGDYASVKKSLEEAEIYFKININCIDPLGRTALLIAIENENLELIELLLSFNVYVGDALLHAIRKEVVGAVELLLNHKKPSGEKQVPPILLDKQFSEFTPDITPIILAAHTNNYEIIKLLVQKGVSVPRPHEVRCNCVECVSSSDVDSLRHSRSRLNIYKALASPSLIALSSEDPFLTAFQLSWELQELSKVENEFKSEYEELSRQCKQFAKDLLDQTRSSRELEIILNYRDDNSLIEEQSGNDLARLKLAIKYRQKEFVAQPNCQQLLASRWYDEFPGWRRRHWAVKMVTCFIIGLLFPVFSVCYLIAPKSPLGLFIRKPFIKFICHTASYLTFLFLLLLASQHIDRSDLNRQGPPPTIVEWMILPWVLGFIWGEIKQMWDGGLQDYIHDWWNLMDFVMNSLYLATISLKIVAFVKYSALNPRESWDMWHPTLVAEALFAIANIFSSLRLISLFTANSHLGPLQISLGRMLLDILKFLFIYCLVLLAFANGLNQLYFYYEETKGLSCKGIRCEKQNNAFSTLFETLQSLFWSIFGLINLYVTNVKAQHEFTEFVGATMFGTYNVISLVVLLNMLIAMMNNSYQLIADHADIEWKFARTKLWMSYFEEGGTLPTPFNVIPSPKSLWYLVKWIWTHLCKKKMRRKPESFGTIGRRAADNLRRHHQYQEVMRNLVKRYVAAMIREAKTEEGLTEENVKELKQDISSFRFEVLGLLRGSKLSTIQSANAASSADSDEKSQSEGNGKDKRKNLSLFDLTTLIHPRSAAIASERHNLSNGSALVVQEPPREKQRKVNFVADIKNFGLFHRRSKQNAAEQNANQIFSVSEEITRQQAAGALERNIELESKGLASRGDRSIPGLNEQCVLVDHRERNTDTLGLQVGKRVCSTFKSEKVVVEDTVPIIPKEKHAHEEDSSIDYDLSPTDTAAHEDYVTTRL

[11] = target: T6, Short transient receptor potential channel 4; experiment: TRPC4 inhibition under acetylcholine activation, SAR follow-up, cell-based, acetylcholine stimulus, HEK293 TRPC4, Fluo-4 (AID 492996); assay type: functional
[12] = target: T6, Short transient receptor potential channel 4; experiment: SAR Analysis for the identification of selective inhibitors of the transient receptor potential cation channel C4 (TRPC4): TRPC4 Serotonin Receptor CRC MPD assay. [Related pubchem assays (depositor defined):AID2247, AID2256]; assay type: functional
[13] = target: T6, Short transient receptor potential channel 4; experiment: TRPC4 inhibitor concentration-response, dose response, cell-based, HEK293 TRPC4/mu-opioid, DAMGO stimulus, Fluo-4 (AID 492994); assay type: functional

Compound: Cn1cccc1C(=O)OCc1cc(-c2ccco2)on1
- AC50 [1]: 11.1 µM (active)
- AC50 (HeLa): > 380 µM (inactive)

Compound: CC(C)(C)C(=O)c1sc2nc(-c3cccs3)cc(C(F)(F)F)c2c1N
- EC50 [2]: > 300 µM (not active)
- EC50 [3]: > 300 µM (inconclusive)
- IC50 (Ephrin type-A receptor 4): 9.9 µM (active)
- EC50 [4]: 2.59 µM (active)
- EC50 [5]: > 99 µM (inactive)
- EC50 [6]: > 99 µM (inactive)
- EC50 [7]: 18 µM (active)

Compound: COc1ccc(S(=O)(=O)N(C)C[C@@H]2Oc3c(NC(=O)Nc4cccc5ccccc45)cccc3C(=O)N(C(C)C)C[C@H]2C)cc1
- AC50 (INS1 [8]): 63.7 µM (active)
- AC50 (INS1 [9]): 24 µM (active)

- IC50 [10]: 3.14 µM (active)
- IC50 [11]: 20.7 µM (active)
- IC50 [12]: 5.47 µM (active)
- IC50 [13]: 7.24 µM (active)
Compound: Cc1cc(N2CCC(C)CC2)nc2ccccc12
